Key:
[1] = Safety evaluation in the renal impairment single dose study (Example 3); assay type: in vivo, human
Procedure: The safety evaluation was based on the review of the individual values (clinically significant abnormalities) and descriptive statistics (summary tables). All safety analyses were performed using the safety population and based on the on-treatment phase (defined as the start time of investigational medicinal product [IMP] administration up to Day 3 visit). For laboratory, vital sign, and ECG data, the Potentially Clinically Significant Abnormalities (PCSAs) were analyzed using PCSA list (Version 3.0, 24 May 2014). Electrocardiogram parameters were obtained from automatic reading of the 12-lead ECGs and were analyzed as raw parameter value and change from baseline. For vital signs, raw data and changes from baseline were summarized using descriptive statistics by population group and time of measurement. All individual data for biochemistry, hematology, and qualitative urinary tests were listed.
Vital signs and ECG readings were analyzed as raw parameter value and change from baseline.
Adverse events were coded according to the Medical Dictionary for Regulatory Activities (MedDRA, version 19.1). They were classified into pre-defined standard categories according to chronological criteria: • Pretreatment adverse events: AEs that occurred, worsened (according to the Investigator's opinion) or became serious during the pretreatment phase (defined as the time between the signature of the informed consent and IMP administration [excluded]); • Treatment-emergent adverse events (TEAEs): AEs that occurred, worsened or became serious during the on-treatment phase; • Posttreatment adverse events: AEs that occurred, worsened or became serious during the posttreatment phase (defined as starting after the Day 3 visit and ending with EOS).
The number and percentage of subjects with TEAEs were listed by population group, primary system-organ class (SOC), preferred term (PT), and AE diagnosis.

[2] = Safety evaluation in the hepatic impairment single dose study (Example 1); assay type: in vivo, human
Procedure: The safety evaluation was based upon the review of the individual values (clinically significant abnormalities) and descriptive statistics (summary tables). All safety analyses were performed using the safety population and were based on the on-treatment phase (defined as the time from investigational medicinal product [IMP] administration up to Day 3 visit, inclusive). For laboratory, vital signs, and ECG data, potentially clinically significant abnormalities (PCSAs) were analyzed using the 24 May 2014 version of the PCSA list. Electrocardiogram parameters were obtained from automatic reading of 12-lead ECGs and were analyzed as raw parameter values and change from baseline. For vital signs, raw data and changes from baseline were summarized using descriptive statistics by population group and time point. All individual data for biochemistry, hematology, and qualitative urinary tests were listed.
Adverse events were coded according to the Medical Dictionary for Regulatory Activities (MedDRA v.19.1) and classified into predefined standard categories according to chronological criteria: • Pretreatment adverse events (AEs), defined as AEs that occurred, worsened (according to Investigator opinion), or became serious during the pretreatment phase (defined as the time between the signature of the informed consent and IMP administration [excluded]); • Treatment-emergent AEs (TEAEs), defined as AEs that occurred, worsened, or became serious during the on-treatment phase; • Posttreatment AEs, defined as AEs that occurred, worsened, or became serious during the posttreatment phase (defined as the time after Day 3 visit through completion of EOS).
All AEs reported in the study were listed and sorted by subject, onset date and time. The number and percentage of subjects with TEAEs were listed by population group, primary system-organ class (SOC), preferred term (PT), and AE diagnosis.

[3] = renal impairment study, single dose
[4] = hepatic impairment study, single dose

SMILES: CCCCCCCC(=O)N[C@H](CN1CCCC1)[C@H](O)c1ccc2c(c1)OCCO2 [eliglustat, N-((1R,2R)-1-(2,3-dihydrobenzo[b][1,4]dioxin-6-yl)-1-hydroxy-3-(pyrrolidin-1-yl)propan-2-yl)octanamide]
- Total number of mild TEAEs observed ([1]; in 1 subject, considered related to study drug: fatigue in a healthy subject): one
- Deaths or withdrawals due to AEs [1, 3]: no deaths or withdrawals due to AEs
- Serious adverse events [1, 3]: No serious adverse events were reported
- Treatment emergent PCSA (laboratory values, vital signs, ECGs) [1, 3]: no treatment emergent PCSA that were clinically relevant
- Total number of mild TEAEs observed ([2]; all groups (healthy, mild HI, moderate HI), in 5 subjects, single dose): 6
- Deaths or other significant AEs [2, 4]: no deaths or other significant AEs
- Serious adverse events [2, 4]: No serious adverse events were reported
- Treatment emergent PCSA (laboratory values, vital signs, ECGs) [2, 4]: no treatment emergent PCSA that were clinically relevant
- TEAEs considered related to study drug by the investigator ([2]; in 3 subjects: dysgeusia in 2 moderate HI subjects, nausea and headache in 1 healthy subject): Four

— patent US10888544B2, “Methods for treating Gaucher disease” (Genzyme Corporation, priority 2017, dated 2021)
